Results from PubChem BioAssay (NCI).
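Method: 48-hour compound exposure of cells in 96-well plates, five concentrations, linear interpolation of endpoints. TGI: total growth inhibition.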

Tests used:
Assay in all cases: growth of human tumour cells (NCI), 48 h
UACC-257 melanoma = tested on: UACC-257 melanoma
MCF7 breast = tested on: MCF7 breast
A498 renal = tested on: A498 renal
CCRF-CEM leukemia = tested on: CCRF-CEM leukemia
SN12C renal = tested on: SN12C renal
SK-MEL-28 melanoma = tested on: SK-MEL-28 melanoma
U251 CNS = tested on: U251 CNS
M14 melanoma = tested on: M14 melanoma
SF-295 CNS = tested on: SF-295 CNS
UO-31 renal = tested on: UO-31 renal
SF-268 CNS = tested on: SF-268 CNS
786-0 renal = tested on: 786-0 renal
NCI-H23 lung = tested on: NCI-H23 lung
OVCAR-4 ovarian = tested on: OVCAR-4 ovarian
SF-539 CNS = tested on: SF-539 CNS
RPMI-8226 leukemia = tested on: RPMI-8226 leukemia
MDA-N = tested on: MDA-N
HS 578T breast = tested on: HS 578T breast
BT-549 breast = tested on: BT-549 breast
SK-OV-3 ovarian = tested on: SK-OV-3 ovarian
MOLT-4 leukemia = tested on: MOLT-4 leukemia
HCT-116 colon = tested on: HCT-116 colon
DU-145 prostate = tested on: DU-145 prostate
CAKI-1 renal = tested on: CAKI-1 renal
SK-MEL-2 melanoma = tested on: SK-MEL-2 melanoma
NCI-H226 lung = tested on: NCI-H226 lung
T-47D breast = tested on: T-47D breast
SNB-75 CNS = tested on: SNB-75 CNS
A549 NSCLC = tested on: A549 NSCLC
MDA-MB-231 breast = tested on: MDA-MB-231 breast
KM12 colon = tested on: KM12 colon
HCC-2998 colon = tested on: HCC-2998 colon
EKVX NSCLC = tested on: EKVX NSCLC
HCT-15 colon = tested on: HCT-15 colon
HOP-62 NSCLC = tested on: HOP-62 NSCLC
NCI/ADR-RES ovarian = tested on: NCI/ADR-RES ovarian
SW-620 colon = tested on: SW-620 colon
OVCAR-5 ovarian = tested on: OVCAR-5 ovarian
SNB-19 CNS = tested on: SNB-19 CNS
OVCAR-8 ovarian = tested on: OVCAR-8 ovarian
ACHN renal = tested on: ACHN renal
COLO 205 colon = tested on: COLO 205 colon
MDA-MB-435 = tested on: MDA-MB-435
PC-3 prostate = tested on: PC-3 prostate
UACC-62 melanoma = tested on: UACC-62 melanoma
MALME-3M melanoma = tested on: MALME-3M melanoma
HT29 colon = tested on: HT29 colon
NCI-H460 lung = tested on: NCI-H460 lung
K-562 leukemia = tested on: K-562 leukemia
RXF 393 renal = tested on: RXF 393 renal
LOX IMVI melanoma = tested on: LOX IMVI melanoma
SK-MEL-5 melanoma = tested on: SK-MEL-5 melanoma
SR leukemia = tested on: SR leukemia
IGROV1 ovarian = tested on: IGROV1 ovarian
OVCAR-3 ovarian = tested on: OVCAR-3 ovarian
TK-10 renal = tested on: TK-10 renal
HOP-92 NSCLC = tested on: HOP-92 NSCLC
HL-60(TB) leukemia = tested on: HL-60(TB) leukemia
NCI-H522 lung = tested on: NCI-H522 lung

SMILES: O=C1c2ccccc2-c2c1c(-c1ccc(O)cc1O)nc1ccc3ccccc3c21
- TGI (UACC-257 melanoma): > 100 µM
- TGI (MCF7 breast): > 100 µM
- TGI (A498 renal): > 100 µM
- TGI (CCRF-CEM leukemia): > 100 µM
- TGI (SN12C renal): > 100 µM
- TGI (SK-MEL-28 melanoma): > 100 µM
- TGI (U251 CNS): > 100 µM
- TGI (M14 melanoma): > 100 µM
- TGI (SF-295 CNS): > 100 µM
- TGI (UO-31 renal): > 100 µM
- TGI (SF-268 CNS): > 100 µM
- TGI (786-0 renal): > 100 µM
- TGI (NCI-H23 lung): > 100 µM
- TGI (OVCAR-4 ovarian): > 100 µM
- TGI (SF-539 CNS): > 100 µM
- TGI (RPMI-8226 leukemia): > 100 µM
- TGI (MDA-N): > 100 µM
- TGI (HS 578T breast): 75.2 µM
- TGI (BT-549 breast): > 100 µM
- TGI (SK-OV-3 ovarian): > 100 µM
- TGI (MOLT-4 leukemia): > 100 µM
- TGI (HCT-116 colon): > 100 µM
- TGI (DU-145 prostate): > 100 µM
- TGI (CAKI-1 renal): > 100 µM
- TGI (SK-MEL-2 melanoma): > 100 µM
- TGI (NCI-H226 lung): > 100 µM
- TGI (T-47D breast): > 100 µM
- TGI (SNB-75 CNS): > 100 µM
- TGI (A549 NSCLC): > 100 µM
- TGI (MDA-MB-231 breast): > 100 µM
- TGI (KM12 colon): > 100 µM
- TGI (HCC-2998 colon): > 100 µM
- TGI (EKVX NSCLC): > 100 µM
- TGI (HCT-15 colon): > 100 µM
- TGI (HOP-62 NSCLC): > 100 µM
- TGI (NCI/ADR-RES ovarian): > 100 µM
- TGI (SW-620 colon): > 100 µM
- TGI (OVCAR-5 ovarian): > 100 µM
- TGI (SNB-19 CNS): > 100 µM
- TGI (OVCAR-8 ovarian): > 100 µM
- TGI (ACHN renal): > 100 µM
- TGI (COLO 205 colon): > 100 µM
- TGI (MDA-MB-435): > 100 µM
- TGI (PC-3 prostate): > 100 µM
- TGI (UACC-62 melanoma): > 100 µM
- TGI (MALME-3M melanoma): > 100 µM
- TGI (HT29 colon): > 100 µM
- TGI (NCI-H460 lung): > 100 µM
- TGI (K-562 leukemia): > 100 µM

SMILES: O=C1C=CC(=O)c2c(O)c(NCCCN3CCOCC3)c(Cl)c(O)c21
- TGI (RXF 393 renal): 3.13 µM
- TGI (UACC-257 melanoma): 4.94 µM
- TGI (LOX IMVI melanoma): 4.26 µM
- TGI (MCF7 breast): 3.31 µM
- TGI (A498 renal): > 10 µM
- TGI (SN12C renal): 3.68 µM
- TGI (SK-MEL-28 melanoma): 3.17 µM
- TGI (U251 CNS): 5.55 µM
- TGI (M14 melanoma): 4.18 µM
- TGI (SF-295 CNS): 5.49 µM
- TGI (UO-31 renal): 3.64 µM
- TGI (SF-268 CNS): 7.07 µM
- TGI (786-0 renal): 5.23 µM
- TGI (NCI-H23 lung): 3.43 µM
- TGI (SF-539 CNS): 3.21 µM
- TGI (RPMI-8226 leukemia): 1.54 µM
- TGI (MDA-N): 3.09 µM
- TGI (HS 578T breast): 3.14 µM
- TGI (BT-549 breast): 3.28 µM
- TGI (SK-OV-3 ovarian): > 10 µM
- TGI (HCT-116 colon): 2.93 µM
- TGI (DU-145 prostate): 2.95 µM
- TGI (SK-MEL-5 melanoma): 2.4 µM
- TGI (SR leukemia): 4.64 µM
- TGI (SK-MEL-2 melanoma): 0.526 µM
- TGI (NCI-H226 lung): > 10 µM
- TGI (T-47D breast): > 10 µM
- TGI (SNB-75 CNS): 4.15 µM
- TGI (A549 NSCLC): > 10 µM
- TGI (MDA-MB-231 breast): 7.96 µM
- TGI (KM12 colon): 3.8 µM
- TGI (HCC-2998 colon): 3.71 µM
- TGI (IGROV1 ovarian): 3.58 µM
- TGI (HCT-15 colon): 3.12 µM
- TGI (HOP-62 NSCLC): 3.86 µM
- TGI (SW-620 colon): 4.22 µM
- TGI (OVCAR-5 ovarian): 3.1 µM
- TGI (SNB-19 CNS): 3.25 µM
- TGI (OVCAR-8 ovarian): > 10 µM
- TGI (ACHN renal): > 10 µM
- TGI (MDA-MB-435): 3.62 µM
- TGI (PC-3 prostate): 9.91 µM
- TGI (UACC-62 melanoma): 4.81 µM
- TGI (MALME-3M melanoma): 3.56 µM
- TGI (HT29 colon): 7.34 µM
- TGI (NCI-H460 lung): > 10 µM
- TGI (OVCAR-3 ovarian): 2.99 µM
- TGI (K-562 leukemia): 8.68 µM
- TGI (TK-10 renal): > 10 µM

SMILES: COc1cccc(C2c3cc4c(cc3OC(NNc3ccccc3)C2C)OCO4)c1O (stereo not given)
- TGI (RXF 393 renal): 29.6 µM
- TGI (UACC-257 melanoma): 17.7 µM
- TGI (LOX IMVI melanoma): 27.5 µM
- TGI (MCF7 breast): 19.6 µM
- TGI (A498 renal): 28.2 µM
- TGI (CCRF-CEM leukemia): 21.7 µM
- TGI (SN12C renal): 23.5 µM
- TGI (SK-MEL-28 melanoma): 24.7 µM
- TGI (HOP-92 NSCLC): 28.5 µM
- TGI (HL-60(TB) leukemia): 12.9 µM
- TGI (U251 CNS): 18.7 µM
- TGI (M14 melanoma): 19.3 µM
- TGI (SF-295 CNS): 10.5 µM
- TGI (UO-31 renal): 16.6 µM
- TGI (SF-268 CNS): 42.4 µM
- TGI (786-0 renal): 23.2 µM
- TGI (NCI-H23 lung): 28 µM
- TGI (SF-539 CNS): 9.87 µM
- TGI (RPMI-8226 leukemia): 22.6 µM
- TGI (MDA-N): 8.59 µM
- TGI (HS 578T breast): 34.5 µM
- TGI (BT-549 breast): 20.4 µM
- TGI (SK-OV-3 ovarian): 58.4 µM
- TGI (MOLT-4 leukemia): 23.5 µM
- TGI (HCT-116 colon): 18 µM
- TGI (DU-145 prostate): 18.9 µM
- TGI (SK-MEL-5 melanoma): 20 µM
- TGI (CAKI-1 renal): 23.3 µM
- TGI (SR leukemia): 6.28 µM
- TGI (SK-MEL-2 melanoma): 25.7 µM
- TGI (NCI-H226 lung): 29.6 µM
- TGI (T-47D breast): 31.1 µM
- TGI (SNB-75 CNS): 47.4 µM
- TGI (A549 NSCLC): 19.2 µM
- TGI (MDA-MB-231 breast): 27.9 µM
- TGI (KM12 colon): 18.3 µM
- TGI (HCC-2998 colon): 6.47 µM
- TGI (EKVX NSCLC): 22.1 µM
- TGI (IGROV1 ovarian): 25.5 µM
- TGI (HCT-15 colon): 12 µM
- TGI (HOP-62 NSCLC): 8.14 µM
- TGI (SW-620 colon): 25.5 µM
- TGI (OVCAR-5 ovarian): 27.1 µM
- TGI (SNB-19 CNS): 32.4 µM
- TGI (OVCAR-8 ovarian): 21.1 µM
- TGI (ACHN renal): 15.5 µM
- TGI (NCI-H522 lung): 14.4 µM
- TGI (COLO 205 colon): 23.8 µM
- TGI (MDA-MB-435): 12.5 µM
- TGI (PC-3 prostate): 19.1 µM
- TGI (UACC-62 melanoma): 17.9 µM
- TGI (MALME-3M melanoma): 19.1 µM
- TGI (HT29 colon): 23.3 µM
- TGI (NCI-H460 lung): 15.5 µM
- TGI (OVCAR-3 ovarian): 8.36 µM
- TGI (K-562 leukemia): 11.9 µM
- TGI (TK-10 renal): 17.3 µM
